Legend:
[1] = system: H0-1 human melanoma cell line; test: 96-h growth suppression (cell number by Coulter Counter); format: cell-based; settings: for Growth Suppression (reversible): H0-1 cells, degree of initial 96 hr growth suppression versus untreated control
Experimental: FIG. 1A-B Effect of continuous exposure to various growth and differentiation modulating agents on the 96-h growth of the human melanoma cell line, H0-1. Cells were seeded at 5×10^4/35-mm tissue culture plate and 24 h later the medium was changed with the indicated compounds. Cell numbers were determined by Coulter Counter after 96-h growth. Further details can be found in Materials and Methods.
The H0-1 cell line is a melanotic melanoma derived from a person and was used between passage 100 and 125 (6,8,13). H0-1 cells were kindly provided by Dr. Beppino C. Giovanella, Stehlin Foundation for Cancer Research, Houston, Tex. Cultures were grown at 37° C. in a 95% air 5% CO2-humidified incubator in Dulbecco's modified Eagle's medium (DMEM) supplemented with 10% fetal bovine serum (DMEM-10) (Hyclone, Logan, Utah). H0-1 cells were maintained in the logarithmic stage of growth by subculturing (1:5 or 1:10) prior to confluency approximately every 4 to 5 days. […] Total cell numbers were determined after days 4, 7, 14, and 21, using a ZM Coulter Counter, and viable cell numbers were determined by trypan blue dye exclusion (6). […] Increases in cell number (two or more population doublings) after removal of the inducing agent(s) was considered reversible growth suppression. […] Conditioned medium was collected from treated cultures, contaminating cells were removed by centrifugation at 1000 rpm/10 min., and conditioned medium was stored at 4° C. until assayed for gene modulatory activity. Control conditioned medium was obtained as experimental conditioned medium from cells receiving only a medium change 24 hours after plating in the absence of test compound(s) and growth for 72 hours in DMEM-10.

H0-1 cells = test: Northern blotting analysis of steady-state mRNA levels; format: cell-based, human; settings: FIG. 1 concentrations
Experimental: Steady-state levels of specific mRNAs were determined by Northern blotting analysis of total RNA probed with appropriate ^32P-labeled gene probes as described previously (14-16). RNAs were analyzed from cells treated with inducer for 24 hours, treated for 24 hours with inducer followed by growth for 72 hours in the absence of inducer, or treated continuously for 96 hours with the inducer. The concentration of inducing compounds used were the same as those used for growth studies. The effect of conditioned medium on gene expression changes was determined by treating H0-1 cells for 24 hours with a 1:2 dilution of conditioned medium (equal volumes of conditioned medium and DMEM supplemented with 10% fetal bovine serum (DMEM-10) or for 96 hours with a 1:4 dilution of conditioned medium (1 vol. of conditioned medium to 3 vol. of DMEM-10). The probes used in the present study were specific for β-actin (17), γ-actin (17), c-jun (18), c-myc (19), fibronectin (20), gro/MGSA (21), HLA Class I antigen (22), HLA Class II antigen (HLA-DRβ) (22), α5 integrin (23), β1 integrin (24), ISG-15 (25), ISG-54 (25), jun-B (26), and tenascin (27). Northern blots were also probed with a ^32P-labeled GAPDH gene (15) to verify similar mRNA expression under the various experimental conditions. Following hybridization, the filters were washed and exposed for autoradiography.

[2] = system: MDA-6 (WAF1/CIP1/SDI1) protein; test: Immunoprecipitation of MDA-6 (WAF1/CIP1/SDI1) protein in HL-60 cells; format: cell-based, human; settings: TPA, DMSO (1%) or RA (1 μM), 12, 24, 48 and 72 h tested
Experimental: Immunoprecipitation analyses were performed as described previously (Duigou et al., 1991; Su et al. 1993). Logarithmically growing HL-60 cells were either untreated or treated for 12, 24, 48 or 72 h with TPA ([…]), RA (1 μM) or DMSO (1%) in 10-cm plates. Cultures were starved of methionine for 1 h at 37° C. in methionine-free medium, cells were concentrated by pelleting and labeled for 4 h at 37° C. in 1 ml of the same medium with 100 μCi of [^35S] (NEN; Express ^35S). After labeling, the cells were washed twice with ice-cold phosphate-buffered saline and lysed for 1 h on ice by the addition of RIPC (20 mM Tris-base, pH 7.5, 500 mM NaCl, 0.05% Nonidet P-40, 100 μg/ml phenylmethylsulfonyl fluoride and 0.02% sodium azide). The lysate was clarified by centrifugation in an Eppendorf microfuge at 10,000×g for 10 min at 4° C. Samples containing 4×10^6 counts were incubated with 2 μg of WAF1/CIP1 (C-19) (Santa Cruz Biotechnology) (or MDA-6 peptide-derived) rabbit polyclonal IgG or actin monoclonal antibody (Oncogene Sciences) with rocking at 4° C. for 24 h. The next day, 30 μl (packed volume) of protein G-agarose (Oncogene Sciences) was added to each tube, and incubation with rocking at 4° C. continued for another hour. The protein G pellets were then washed five times with 1 ml of ice-cold RIPC:phosphate-buffered saline (1:1, v/v). Thirty μl of sodium dodecyl sulfate-polyacrylamide gel electrophoresis buffer were added to the pellets, and the sample was heated at 87° C. for 3 min. The samples were loaded onto an 10% polyacrylamide gel and run overnight at 40 V. The gel contained Rainbow protein markers (Amersham) for sizing. Gels were fixed with 10% acetic acid plus 10% methanol for 30 min, incubated in DMSO for 30 min, incubated with 10% 2,5-diphenyloxazole in DMSO for 30 min, washed three times with cold water (10 min each), dried and exposed to film.

| SMILES | Growth Suppression (reversible) ([1]; Table 1) | Growth Suppression (reversible) ([1]; Table 2) | HLA Class I antigen gene expression (H0-1 cells; 96 h) | fibronectin expression (H0-1 cells; 96 h) | induction of gro/MGSA gene expression (H0-1 cells; 96 h) | tenascin expression (H0-1 cells; 96 h) | c-jun and jun-B expression (H0-1 cells; 96 hours) | c-myc expression (H0-1 cells; 96 hours) | inhibition of H0-1 growth ([1]; H0-1, 96 hours, FIG. 1 concentrations) | time of treatment at which MDA-6 protein is detected [2] [h] | α5 integrin expression (H0-1 cells; 96 h) | β-actin and γ-actin expression (H0-1 cells; 96 h) |
| --- | --- | --- | --- | --- | --- | --- | --- | --- | --- | --- | --- | --- |
| C=C(C)[C@@]12O[C@@]3(c4ccccc4)O[C@@H]1[C@@H]1[C@@H]4O[C@]4(CO)[C@@H](O)[C@]4(O)C(=O)C(C)=C[C@H]4[C@@]1(O3)[C@H](C)[C@H]2OC(=O)/C=C/C=C/c1ccccc1 [MEZ, mezerein] | 1+ (1+ = ~30% reduction in growth in comparison with untreated control cultures) | 1+ (1+ = ~30% reduction in growth in comparison with untreated control cultures) | did not significantly alter | less potent | did not | decreased tenascin expression | increase | downregulated |  |  |  |  |
| CC1=C(/C=C/C(C)=C/C=C/C(C)=C/C(=O)O)C(C)(C)CCC1 [RA, trans-retinoic acid] | − (− = no significant change in growth (<10% reduction in growth in comparison with untreated control cultures)) | − (− = no significant change in growth (<10% reduction in growth in comparison with untreated control cultures)) | did not significantly alter | least effective | did not | decreased tenascin expression |  |  | no inhibition of growth | 12 | reduced | did not significantly alter |
| CCCCCCCCCCCCCC(=O)O[C@@H]1[C@@H](C)[C@@]2(O)[C@@H](C=C(CO)C[C@]3(O)C(=O)C(C)=C[C@@H]23)[C@@H]2C(C)(C)[C@]12OC(C)=O [TPA, 12-O-tetradecanoyl-phorbol-13-acetate] |  |  |  |  |  |  |  |  |  | 12 |  |  |
